Key:
[1] = system: rabbit serum obtained by immunizing a rabbit with the SARS-CoV strain Frankfurt 1; format: binding; design: Binding of a rabbit serum to linear peptides / Binding of a rabbit serum to looped peptides / Rabbit serum linear peptides / Rabbit serum looped peptides / Binding of a rabbit serum to linear peptides of protein N of SARS-CoV Urbani (Rabbit serum linear peptides) / Binding of a rabbit serum to looped/cyclic peptides of protein N of SARS-CoV Urbani (Rabbit serum looped peptides): unit not given here
[2] = system: antibodies in sera from SARS patients (sera 1a, 1b, 2, 6, 37, 62, London, SARS-yellow, SARS-green); format: binding, human; design: Binding of serum 6 to linear peptides of protein X1 of SARS-CoV Urbani / Binding of serum 37 to linear peptides of protein X1 of SARS-CoV Urbani / Binding of serum 6 to looped/cyclic peptide (PEPSCAN-ELISA) / Binding of serum 37 to looped/cyclic peptide (PEPSCAN-ELISA) / Binding of serum 37 to looped/cyclic peptides of protein X1 of SARS-CoV Urbani / Binding of serum 6 to linear peptides of protein X2 / Binding of serum 37 to linear peptides of protein X2 / Binding of serum 37 to looped/cyclic peptides of protein X2 of SARS-CoV Urbani / Binding of serum 6 to linear peptides of protein M of SARS-CoV Urbani / Binding of serum 37 to linear peptides of protein M of SARS-CoV Urbani / Binding of serum 6 to looped/cyclic peptides of protein M of SARS-CoV Urbani / Binding of serum 37 to looped/cyclic peptides of protein M of SARS-CoV Urbani / Binding of serum 6 to linear peptides of protein X3 of SARS-CoV Urbani / Binding of serum 37 to linear peptides of protein X3 of SARS-CoV Urbani / Binding of serum 37 to looped/cyclic peptides of protein X3 of SARS-CoV Urbani / Binding of serum 6 to linear peptides of protein X4 of SARS-CoV Urbani / Binding of serum 37 to linear peptides of protein X4 of SARS-CoV Urbani / Binding of serum 37 to looped/cyclic peptides of protein X4 of SARS-CoV Urbani / Binding of serum 6 to linear peptides of protein X5 of SARS-CoV Urbani / Binding of serum 37 to linear peptides of protein X5 of SARS-CoV Urbani / Binding of serum 37 to looped/cyclic peptides of protein X5 of SARS-CoV Urbani / Binding of serum 6 to linear peptides of protein N of SARS-CoV Urbani / Binding of serum 37 to linear peptides of protein N of SARS-CoV Urbani / Binding of serum 6 to linear peptide (PEPSCAN-ELISA) / Binding of serum 1a to looped/cyclic peptides of protein N of SARS-CoV Urbani / Binding of serum 1b to looped/cyclic peptides of protein N of SARS-CoV Urbani / Binding of serum 2 to looped/cyclic peptides of protein N of SARS-CoV Urbani / Binding of serum 6 to looped/cyclic peptides of protein N of SARS-CoV Urbani / Binding of serum 37 to looped/cyclic peptides of protein N of SARS-CoV Urbani / Binding of serum 62 to looped/cyclic peptides of protein N of SARS-CoV Urbani / Binding of serum London to looped/cyclic peptides of protein N of SARS-CoV Urbani / Binding of serum SARS-green to looped/cyclic peptides of protein N of SARS-CoV Urbani: unit not given here
[3] = system: control sera (pooled serum of ten healthy LUMC hospital workers; commercial negative donor pooled serum from the Dutch bloodbank); format: binding, human; design: Binding of Control serum LUMC to linear peptides / Binding of Control serum Blood-bank to linear peptides / Binding of Control serum LUMC to looped peptides / Binding of Control Serum Blood-Bank to Looped peptides / Binding of Control serum LUMC to linear peptides of the protein M of SARS-CoV Urbani / Binding of Control serum Blood-bank to linear peptides of the protein M of SARS-CoV Urbani / Binding of Control serum LUMC to looped peptides of the protein M of SARS-CoV Urbani / Binding of Control Serum Blood-Bank to Looped peptides of the protein M of SARS-CoV Urbani: unit not given here

**Q.** QFAYSNRNRFLYIIK was tested. Which “Rabbit serum linear peptides” value [1] did it give?
**A.** Its value is 0.4.

**Q.** And the “Rabbit serum looped peptides” value [1]?
**A.** The value was 1.2.

**Q.** What about the “Binding of serum 1a to linear peptides of protein M of SARS-CoV Urbani” value [2] of the same sequence?
**A.** Its value is 0.7.

**Q.** What about the “Binding of serum 1b to linear peptides of protein M of SARS-CoV Urbani” value [2] of the same sequence?
**A.** Its value is 0.6.

**Q.** And the “Binding of serum 2 to linear peptides of protein M of SARS-CoV Urbani” value [2]?
**A.** The value was 0.5.

**Q.** And the “Binding of serum 37 to linear peptides of protein M of SARS-CoV Urbani” value [2]?
**A.** The value was 0.4.

**Q.** What about the “Binding of serum 62 to linear peptides of protein M of SARS-CoV Urbani” value [2] of the same sequence?
**A.** The value was 0.9.

**Q.** And the “Binding of serum London to linear peptides of protein M of SARS-CoV Urbani” value [2]?
**A.** Its value is 0.4.

**Q.** And the “Binding of serum SARS-green to linear peptides of protein M of SARS-CoV Urbani” value [2]?
**A.** The value was 0.5.

**Q.** And the “Binding of serum SARS-yellow to linear peptides of protein M of SARS-CoV Urbani” value [2]?
**A.** Its value is 0.3.

**Q.** And the “Recognition of the peptide by sera of SARS-CoV infected individuals, and form (linear, looped/cyclic) in which it is recognized” value [2]?
**A.** The value was “recognized in looped/cyclic form”.

**Q.** And the “Binding of Control Serum Blood-Bank to Looped peptides of the protein M of SARS-CoV Urbani” value [3]?
**A.** The value was 0.6.

**Q.** What about the “Binding of Control serum Blood-bank to linear peptides of the protein M of SARS-CoV Urbani” value [3] of the same sequence?
**A.** Its value is 0.6.

**Q.** And the “Binding of Control serum LUMC to linear peptides of the protein M of SARS-CoV Urbani” value [3]?
**A.** Its value is 0.8.

**Q.** And the “Binding of Control serum LUMC to looped peptides of the protein M of SARS-CoV Urbani” value [3]?
**A.** The value was 0.8.

**Q.** How did the “Rabbit serum linear peptides” value [1] turn out when LTCTSTHFAFACADG was run?
**A.** The value was 0.5.

**Q.** And the “Rabbit serum looped peptides” value [1]?
**A.** The value was 0.3.

**Q.** What about the “Binding of serum 1a to linear peptides of protein X4 of SARS-CoV Urbani” value [2] of the same sequence?
**A.** The value was 0.8.

**Q.** And the “Binding of serum 1a to looped/cyclic peptides of protein X4 of SARS-CoV Urbani” value [2]?
**A.** Its value is 0.6.

**Q.** And the “Binding of serum 1b to linear peptides of protein X4 of SARS-CoV Urbani” value [2]?
**A.** The value was 0.8.

**Q.** What about the “Binding of serum 1b to looped/cyclic peptides of protein X4 of SARS-CoV Urbani” value [2] of the same sequence?
**A.** The value was 0.3.

**Q.** And the “Binding of serum 2 to linear peptides of protein X4 of SARS-CoV Urbani” value [2]?
**A.** The value was 0.5.

**Q.** And the “Binding of serum 2 to looped/cyclic peptides of protein X4 of SARS-CoV Urbani” value [2]?
**A.** Its value is 0.6.

**Q.** And the “Binding of serum 6 to linear peptides of protein X4 of SARS-CoV Urbani” value [2]?
**A.** Its value is 0.6.

**Q.** And the “Binding of serum 6 to looped/cyclic peptides of protein X4 of SARS-CoV Urbani” value [2]?
**A.** The value was 0.5.

**Q.** And the “Binding of serum 37 to linear peptides of protein X4 of SARS-CoV Urbani” value [2]?
**A.** The value was 0.8.

**Q.** What about the “Binding of serum 37 to looped/cyclic peptides of protein X4 of SARS-CoV Urbani” value [2] of the same sequence?
**A.** Its value is 0.5.

**Q.** What about the “Binding of serum 62 to linear peptides of protein X4 of SARS-CoV Urbani” value [2] of the same sequence?
**A.** Its value is 0.8.

**Q.** What about the “Binding of serum 62 to looped/cyclic peptides of protein X4 of SARS-CoV Urbani” value [2] of the same sequence?
**A.** Its value is 0.6.

**Q.** And the “Binding of serum London to linear peptides of protein X4 of SARS-CoV Urbani” value [2]?
**A.** The value was 0.8.

**Q.** And the “Binding of serum London to looped/cyclic peptides of protein X4 of SARS-CoV Urbani” value [2]?
**A.** The value was 0.3.

**Q.** And the “Binding of serum SARS-green to linear peptides of protein X4 of SARS-CoV Urbani” value [2]?
**A.** Its value is 0.8.

**Q.** And the “Binding of serum SARS-green to looped/cyclic peptides of protein X4 of SARS-CoV Urbani” value [2]?
**A.** The value was 0.4.

**Q.** What about the “Binding of serum SARS-yellow to linear peptides of protein X4 of SARS-CoV Urbani” value [2] of the same sequence?
**A.** The value was 0.5.

**Q.** And the “Binding of serum SARS-yellow to looped/cyclic peptides of protein X4 of SARS-CoV Urbani” value [2]?
**A.** The value was 0.4.

**Q.** And the “Binding of Control Serum Blood-Bank to Looped peptides” value [3]?
**A.** The value was 0.7.

**Q.** What about the “Binding of Control serum Blood-bank to linear peptides” value [3] of the same sequence?
**A.** Its value is 0.8.

**Q.** What about the “Binding of Control serum LUMC to linear peptides” value [3] of the same sequence?
**A.** Its value is 0.8.

**Q.** What about the “Binding of Control serum LUMC to looped peptides” value [3] of the same sequence?
**A.** Its value is 0.6.

**Q.** What does the source list for AFACADGTRHTYQLR?
**A.** Rabbit serum linear peptides [1]: 0.5; Rabbit serum looped peptides [1]: 0.1; Binding of serum 1a to linear peptides of protein X4 of SARS-CoV Urbani [2]: 0.6; Binding of serum 1a to looped/cyclic peptides of protein X4 of SARS-CoV Urbani [2]: 0.6; Binding of serum 1b to linear peptides of protein X4 of SARS-CoV Urbani [2]: 0.4; Binding of serum 1b to looped/cyclic peptides of protein X4 of SARS-CoV Urbani [2]: 0.4; Binding of serum 2 to linear peptides of protein X4 of SARS-CoV Urbani [2]: 0.4; Binding of serum 2 to looped/cyclic peptides of protein X4 of SARS-CoV Urbani [2]: 0.8; Binding of serum 6 to linear peptides of protein X4 of SARS-CoV Urbani [2]: 0.5; Binding of serum 6 to looped/cyclic peptides of protein X4 of SARS-CoV Urbani [2]: 0.9; Binding of serum 37 to linear peptides of protein X4 of SARS-CoV Urbani [2]: 0.6; Binding of serum 37 to looped/cyclic peptides of protein X4 of SARS-CoV Urbani [2]: 0.6; Binding of serum 62 to linear peptides of protein X4 of SARS-CoV Urbani [2]: 0.7; Binding of serum 62 to looped/cyclic peptides of protein X4 of SARS-CoV Urbani [2]: 0.5; Binding of serum London to linear peptides of protein X4 of SARS-CoV Urbani [2]: 0.6; Binding of serum London to looped/cyclic peptides of protein X4 of SARS-CoV Urbani [2]: 0.4; Binding of serum SARS-green to linear peptides of protein X4 of SARS-CoV Urbani [2]: 0.4; Binding of serum SARS-green to looped/cyclic peptides of protein X4 of SARS-CoV Urbani [2]: 0.5; Binding of serum SARS-yellow to linear peptides of protein X4 of SARS-CoV Urbani [2]: 0.2; Binding of serum SARS-yellow to looped/cyclic peptides of protein X4 of SARS-CoV Urbani [2]: 0.4; Binding of Control Serum Blood-Bank to Looped peptides [3]: 0.7; Binding of Control serum Blood-bank to linear peptides [3]: 0.6; Binding of Control serum LUMC to linear peptides [3]: 0.5; Binding of Control serum LUMC to looped peptides [3]: 0.8
